{"source": "patent US5932608A", "about": "“Melatonin derivative dermocosmetic compositions for whitening/depigmenting the skin” (Societe L'Oreal S.A., priority 1996, dated 1999)", "key": {"fungal tyrosinase": {"tested_on": "fungal tyrosinase", "assay": "in vitro test of inhibition of tyrosinase (dopachrome formation, 475 nm)", "assay_type": "biochemical", "conditions": "for inhibition of the tyrosinase activity (decrease in the percentage of formation of dopachrome): 25° C., pH 6.5, FIGS. 1 and 2", "source_text": "According to this test, the amount of dopachrome formed during the reaction sequence for the conversion of tyrosine into melanins was monitored by visible spectrometry at 475 nm. These reactions were catalyzed in vitro by fungal tyrosinase, in the presence of a reductive co-substrate (for example L-dopa in small amounts) in order to initiate the hydroxylation reaction of the L-tyrosine into L-dopa, which was then oxidized catalytically into dopaquinone and then into dopachrome.\nThe concentration of dopachrome formed over time was thus measured in the presence and absence of the inhibitor. The inhibition effect is expressed by lowering the maximum amount of dopachrome formed (optical density value at 475 nm read at the plateau of the curve) relative to the amount obtained in the absence of inhibitor.\nA. 0.1M phosphate buffer pH 6.5 (1% Tween 20)\nB. Stock solution of 2×10^-3 M L-tyrosine in A\nC. Stock solution of 10^-4 M L-dopa in A\nD. Stock solution of fungal tyrosinase containing 2400 units/ml in A\nE. Stock solution of the inhibitor at 10^-2 M in A\nThe solutions C and D were prepared on the day of use.\nReference cell: 3 ml of A\nHomogenize and equilibrate at 25° C.\nMixed together rapidly and observed the kinetics by measuring the absorbance as a function of time."}, "skin pigmentation": {"tested_on": "skin pigmentation", "conditions": "exogenous melatonin; D. B. McElhinney et al., J. Invest. Dermatol, 102 (2), 258-9 (1994); cited from earlier work"}}, "data": [{"smiles": "COc1cc2c(CCNC(C)=O)c[nH]c2cc1O", "note": "[6-hydroxymelatonin]", "values": [{"measurement": "inhibition of the tyrosinase activity (decrease in the percentage of formation of dopachrome)", "setting": "fungal tyrosinase; 0.1 ml of solution E (inhibitor 10^-2 M stock) in 3 ml test cell", "result": "significant inhibition"}, {"measurement": "inhibition of the tyrosinase activity (decrease in the percentage of formation of dopachrome)", "setting": "fungal tyrosinase; 0.2 ml of solution E (inhibitor 10^-2 M stock) in 3 ml test cell", "result": "significant inhibition"}]}, {"smiles": "COc1ccc2[nH]cc(CCNC(C)=O)c2c1", "note": "[melatonin, N-acetyl-5-methoxytryptamine]", "values": [{"measurement": "inhibition of the tyrosinase activity", "setting": "fungal tyrosinase; similar tests, amount of inhibitor not stated", "result": "absence of inhibition"}, {"measurement": "effect on skin pigmentation in man", "setting": "skin pigmentation", "result": "no effect"}]}]}
